Consider 16 molecules from US7074789B2, “Kinase inhibitors” (Amgen Inc., priority 1999, dated 2006).

What all share (type): biochemical
One test deals with T1, Fyn (Homo sapiens, UniProt P06241).
T1 construct: Kinases are expressed as either kinase domains or full length constructs; made in house
Briefly: Kinase inhibition assay (33P transfer), Fyn. Particulars: read-out: Fyn-1. In outline:
(§1)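 GST/His-fusion kinases, E. coli or High Five expressed, affinity purified; 33P-ATP, plate-coated poly(Glu,Tyr) 4:1 or poly(Arg,Ser) 3:1; 0.5% H3PO4 wash, scintillant, LSC.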

A further test has as its target T2, Zap-70 (Homo sapiens, UniProt P43403).
T2 construct: Kinases are expressed as either kinase domains or full length constructs; made in house
T2 sequence (P43403 1-619): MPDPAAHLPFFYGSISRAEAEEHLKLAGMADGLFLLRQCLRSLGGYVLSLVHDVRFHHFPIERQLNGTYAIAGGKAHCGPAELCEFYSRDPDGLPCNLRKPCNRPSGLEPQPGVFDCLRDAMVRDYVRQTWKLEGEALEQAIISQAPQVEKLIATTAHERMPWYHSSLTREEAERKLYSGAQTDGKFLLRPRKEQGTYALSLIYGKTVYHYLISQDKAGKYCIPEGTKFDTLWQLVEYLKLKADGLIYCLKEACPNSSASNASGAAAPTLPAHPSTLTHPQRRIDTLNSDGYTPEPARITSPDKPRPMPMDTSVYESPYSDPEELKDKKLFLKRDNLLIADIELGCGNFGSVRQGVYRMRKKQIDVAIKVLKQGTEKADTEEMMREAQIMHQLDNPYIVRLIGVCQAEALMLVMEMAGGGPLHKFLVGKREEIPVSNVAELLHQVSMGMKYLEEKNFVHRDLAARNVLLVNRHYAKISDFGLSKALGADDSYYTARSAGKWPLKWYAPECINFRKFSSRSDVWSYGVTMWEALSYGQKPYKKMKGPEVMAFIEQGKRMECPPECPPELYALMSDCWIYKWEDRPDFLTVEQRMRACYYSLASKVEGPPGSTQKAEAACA
Briefly: Kinase inhibition assay (33P transfer), Zap-70. The note with it: Table 3; read-out: Zap-1. In outline: (§2)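 GST/His-tagged kinase (domain or full length; E. coli or baculovirus) + [33P]ATP on plates coated with poly(Glu,Tyr) 4:1 or poly(Arg,Ser) 3:1; incubate, wash 0.5% H3PO4, add scintillant, count.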

The target of the next test is T3, ErbB2 (Homo sapiens, UniProt P04626).
T3 construct: Kinases are expressed as either kinase domains or full length constructs; made in house
T3 sequence (P04626 23-1255, species assumed): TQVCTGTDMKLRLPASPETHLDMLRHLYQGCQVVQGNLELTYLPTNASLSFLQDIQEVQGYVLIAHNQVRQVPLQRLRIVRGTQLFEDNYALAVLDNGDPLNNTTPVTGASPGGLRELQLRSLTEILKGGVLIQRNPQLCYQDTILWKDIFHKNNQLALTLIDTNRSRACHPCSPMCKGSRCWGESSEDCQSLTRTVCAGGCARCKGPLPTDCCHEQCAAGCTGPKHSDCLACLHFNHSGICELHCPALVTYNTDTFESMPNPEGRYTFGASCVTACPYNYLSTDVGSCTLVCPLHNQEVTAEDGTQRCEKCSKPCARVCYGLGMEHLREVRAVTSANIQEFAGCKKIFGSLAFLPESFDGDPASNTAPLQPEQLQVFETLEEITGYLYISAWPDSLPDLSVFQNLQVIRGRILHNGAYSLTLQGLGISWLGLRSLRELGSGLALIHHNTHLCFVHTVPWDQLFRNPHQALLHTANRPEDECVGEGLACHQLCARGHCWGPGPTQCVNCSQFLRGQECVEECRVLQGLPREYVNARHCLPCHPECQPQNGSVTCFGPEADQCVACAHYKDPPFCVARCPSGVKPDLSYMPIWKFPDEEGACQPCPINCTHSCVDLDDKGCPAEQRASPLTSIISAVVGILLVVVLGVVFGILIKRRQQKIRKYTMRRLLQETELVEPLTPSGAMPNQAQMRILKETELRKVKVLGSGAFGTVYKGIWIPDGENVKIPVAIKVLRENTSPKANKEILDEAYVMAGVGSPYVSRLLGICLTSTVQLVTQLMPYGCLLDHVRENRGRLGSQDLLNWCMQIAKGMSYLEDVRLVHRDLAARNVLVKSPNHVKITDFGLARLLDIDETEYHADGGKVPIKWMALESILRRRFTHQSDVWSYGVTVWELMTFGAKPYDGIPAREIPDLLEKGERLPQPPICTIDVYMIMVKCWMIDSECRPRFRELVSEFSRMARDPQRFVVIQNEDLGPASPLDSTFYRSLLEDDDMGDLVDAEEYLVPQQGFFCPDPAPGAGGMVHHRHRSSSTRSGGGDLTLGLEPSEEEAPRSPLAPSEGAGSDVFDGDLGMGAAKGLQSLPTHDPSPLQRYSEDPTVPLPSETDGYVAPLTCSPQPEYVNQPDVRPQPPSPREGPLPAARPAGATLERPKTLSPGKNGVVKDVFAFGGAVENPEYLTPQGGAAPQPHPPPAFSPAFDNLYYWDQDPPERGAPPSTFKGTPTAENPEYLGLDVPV
In words: Kinase inhibition assay (33P transfer), ErbB2. Particulars: read-out: ErbB2-2. In short, it runs like this: as §1

A further test concerns the target T4, Flt-1 (Homo sapiens, UniProt P17948).
T4 construct: Kinases are expressed as either kinase domains or full length constructs; made in house
Briefly: Kinase inhibition assay (33P transfer), Flt-1. In outline:
as §1

The next test has as its target T5, AKT (Homo sapiens, UniProt Q9Y243).
T5 construct: Kinases are expressed as either kinase domains or full length constructs; made in house
Briefly: Kinase inhibition assay (33P transfer), AKT. Particulars: Table 2, kinase inhibition class; read-out: AKT3-1. In outline:
as §2

The target of the next test is T6, EPHB4 (Homo sapiens, UniProt P54760).
T6 construct: Kinases are expressed as either kinase domains or full length constructs; made in house
T6 sequence (P54760 16-987): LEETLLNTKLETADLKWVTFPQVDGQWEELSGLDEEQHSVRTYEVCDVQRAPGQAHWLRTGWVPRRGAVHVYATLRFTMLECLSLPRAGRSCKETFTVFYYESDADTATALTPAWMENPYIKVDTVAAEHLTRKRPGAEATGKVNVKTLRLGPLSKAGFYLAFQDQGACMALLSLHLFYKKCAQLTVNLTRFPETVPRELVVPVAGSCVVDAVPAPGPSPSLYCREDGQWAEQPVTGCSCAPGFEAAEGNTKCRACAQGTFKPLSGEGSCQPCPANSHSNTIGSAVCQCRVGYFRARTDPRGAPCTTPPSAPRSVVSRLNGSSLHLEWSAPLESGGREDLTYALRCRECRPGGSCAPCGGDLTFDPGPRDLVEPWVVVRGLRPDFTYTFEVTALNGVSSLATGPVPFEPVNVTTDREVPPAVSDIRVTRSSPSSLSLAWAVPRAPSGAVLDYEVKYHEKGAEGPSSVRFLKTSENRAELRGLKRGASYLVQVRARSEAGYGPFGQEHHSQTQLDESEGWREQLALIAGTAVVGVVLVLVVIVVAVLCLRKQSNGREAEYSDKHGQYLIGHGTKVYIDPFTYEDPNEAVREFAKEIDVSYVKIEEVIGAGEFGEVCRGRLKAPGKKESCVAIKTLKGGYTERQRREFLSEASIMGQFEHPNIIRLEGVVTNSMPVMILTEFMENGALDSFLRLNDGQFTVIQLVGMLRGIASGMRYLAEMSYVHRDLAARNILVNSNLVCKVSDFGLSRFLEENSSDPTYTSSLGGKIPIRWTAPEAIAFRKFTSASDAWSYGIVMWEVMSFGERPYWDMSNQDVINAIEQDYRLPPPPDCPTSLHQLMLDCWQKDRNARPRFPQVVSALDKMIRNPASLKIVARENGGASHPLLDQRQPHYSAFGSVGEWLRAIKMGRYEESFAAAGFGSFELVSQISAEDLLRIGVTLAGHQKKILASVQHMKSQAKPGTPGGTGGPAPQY
Briefly: Kinase inhibition assay (33P transfer), EPHB4. The note with it: read-out: EPHB4-1.

The next test addresses T7, Hck-1 (Homo sapiens, UniProt P08631).
T7 construct: Kinases are expressed as either kinase domains or full length constructs; made in house
In words: Kinase inhibition assay (33P transfer), Hck. Particulars: Table 6, Hck-1 kinase inhibition class.

T5 sequence (Q9Y243 whole entry, the tested form may be a part): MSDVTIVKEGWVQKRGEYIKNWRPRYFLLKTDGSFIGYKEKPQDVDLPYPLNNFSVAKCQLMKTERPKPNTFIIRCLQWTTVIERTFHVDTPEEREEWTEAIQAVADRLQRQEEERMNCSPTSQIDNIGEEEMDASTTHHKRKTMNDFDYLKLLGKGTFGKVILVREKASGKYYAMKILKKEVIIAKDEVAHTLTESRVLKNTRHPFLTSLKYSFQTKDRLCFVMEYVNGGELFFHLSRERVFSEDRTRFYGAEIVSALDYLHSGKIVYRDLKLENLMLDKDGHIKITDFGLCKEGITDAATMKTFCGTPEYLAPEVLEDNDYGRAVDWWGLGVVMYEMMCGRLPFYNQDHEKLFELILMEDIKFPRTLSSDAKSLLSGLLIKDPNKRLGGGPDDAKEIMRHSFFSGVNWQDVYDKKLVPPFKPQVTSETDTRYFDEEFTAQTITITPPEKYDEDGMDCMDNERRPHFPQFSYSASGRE
T7 sequence (P08631 whole entry, the tested form may be a part): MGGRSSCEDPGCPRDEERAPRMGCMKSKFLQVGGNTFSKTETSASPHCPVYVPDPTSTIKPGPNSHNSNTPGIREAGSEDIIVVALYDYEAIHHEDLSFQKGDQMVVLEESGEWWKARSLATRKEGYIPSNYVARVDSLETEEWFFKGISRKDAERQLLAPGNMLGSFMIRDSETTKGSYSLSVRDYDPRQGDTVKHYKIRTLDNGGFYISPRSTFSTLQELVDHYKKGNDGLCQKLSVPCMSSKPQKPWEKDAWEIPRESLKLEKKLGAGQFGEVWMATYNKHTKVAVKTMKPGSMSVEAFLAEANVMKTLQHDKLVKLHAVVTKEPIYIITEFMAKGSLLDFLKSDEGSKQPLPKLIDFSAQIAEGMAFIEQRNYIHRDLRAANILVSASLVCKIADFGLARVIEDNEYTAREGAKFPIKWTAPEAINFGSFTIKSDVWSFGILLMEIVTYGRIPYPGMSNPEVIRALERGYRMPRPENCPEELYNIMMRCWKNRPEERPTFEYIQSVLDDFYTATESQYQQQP
T1 sequence (P06241 whole entry, species assumed, the tested form may be a part): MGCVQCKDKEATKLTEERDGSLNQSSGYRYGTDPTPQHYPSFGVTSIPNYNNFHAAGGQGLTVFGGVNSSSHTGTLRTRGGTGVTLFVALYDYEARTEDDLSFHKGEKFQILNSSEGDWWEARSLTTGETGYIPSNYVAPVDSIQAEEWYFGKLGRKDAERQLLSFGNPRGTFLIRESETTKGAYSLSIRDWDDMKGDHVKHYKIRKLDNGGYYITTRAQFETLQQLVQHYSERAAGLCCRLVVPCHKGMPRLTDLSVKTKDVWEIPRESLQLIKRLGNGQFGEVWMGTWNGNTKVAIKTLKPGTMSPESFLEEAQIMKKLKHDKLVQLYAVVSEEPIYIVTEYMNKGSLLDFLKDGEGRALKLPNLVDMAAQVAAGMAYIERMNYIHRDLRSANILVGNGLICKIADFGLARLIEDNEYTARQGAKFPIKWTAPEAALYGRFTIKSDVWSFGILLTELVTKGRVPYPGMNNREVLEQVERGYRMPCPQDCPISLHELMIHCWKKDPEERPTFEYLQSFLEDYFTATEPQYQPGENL
T4 sequence (P17948 27-1338, species assumed): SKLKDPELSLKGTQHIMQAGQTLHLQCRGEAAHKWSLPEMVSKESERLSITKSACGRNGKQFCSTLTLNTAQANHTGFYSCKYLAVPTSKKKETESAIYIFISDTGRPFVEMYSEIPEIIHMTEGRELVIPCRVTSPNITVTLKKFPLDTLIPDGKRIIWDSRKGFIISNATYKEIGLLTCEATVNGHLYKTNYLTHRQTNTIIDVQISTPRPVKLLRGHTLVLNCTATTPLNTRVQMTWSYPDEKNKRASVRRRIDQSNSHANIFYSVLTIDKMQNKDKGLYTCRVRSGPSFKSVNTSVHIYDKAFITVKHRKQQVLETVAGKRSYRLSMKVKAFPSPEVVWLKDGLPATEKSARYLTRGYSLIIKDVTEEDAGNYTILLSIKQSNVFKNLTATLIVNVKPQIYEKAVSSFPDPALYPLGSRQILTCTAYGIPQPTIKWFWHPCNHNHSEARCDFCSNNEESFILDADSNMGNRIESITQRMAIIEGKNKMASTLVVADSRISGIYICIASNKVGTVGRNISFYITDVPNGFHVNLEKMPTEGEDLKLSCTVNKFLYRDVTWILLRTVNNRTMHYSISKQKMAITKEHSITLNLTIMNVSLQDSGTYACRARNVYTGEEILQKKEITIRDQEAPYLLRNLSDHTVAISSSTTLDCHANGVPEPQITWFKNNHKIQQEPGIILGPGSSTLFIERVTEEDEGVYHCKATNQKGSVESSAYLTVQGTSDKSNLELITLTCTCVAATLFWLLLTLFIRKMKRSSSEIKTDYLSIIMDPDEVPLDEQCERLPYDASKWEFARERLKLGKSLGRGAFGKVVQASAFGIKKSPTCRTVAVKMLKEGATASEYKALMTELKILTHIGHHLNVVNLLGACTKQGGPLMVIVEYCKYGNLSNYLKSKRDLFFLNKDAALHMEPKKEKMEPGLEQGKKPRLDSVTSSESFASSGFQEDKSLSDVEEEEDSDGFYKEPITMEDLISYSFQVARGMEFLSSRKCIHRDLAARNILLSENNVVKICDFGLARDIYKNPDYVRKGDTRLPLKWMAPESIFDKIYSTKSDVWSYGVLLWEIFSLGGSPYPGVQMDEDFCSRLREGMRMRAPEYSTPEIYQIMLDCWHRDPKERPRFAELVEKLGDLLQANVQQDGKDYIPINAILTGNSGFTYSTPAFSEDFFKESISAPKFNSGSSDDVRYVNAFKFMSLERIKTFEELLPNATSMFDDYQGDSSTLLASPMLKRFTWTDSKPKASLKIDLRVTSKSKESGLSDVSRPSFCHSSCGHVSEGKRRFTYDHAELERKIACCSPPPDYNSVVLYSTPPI

For `COCCOc1ccc(Nc2ncnc(Nc3ccc4[nH]ccc4c3)n2)cc1OCCOC` [Compound 321], the IC50 on Fyn was above 9.99 µM; on Zap-70 it was above 9.99 µM; at ErbB2 it was 0.888 to 5.33 µM; on Flt-1, above 9.99 µM; at AKT, above 9.99 µM; on EPHB4 it was above 9.99 µM. In addition, the IC50 against Hck-1 is above 9.99 µM.

On to `COc1cc(Nc2ncnc(Nc3cccc(F)c3)n2)cc(OC)c1OC` [Compound 304], for which the IC50 at Fyn was below 1.08 µM; at Zap-70, above 12.1 µM; at ErbB2 it was 1.08 to 6.46 µM; on Flt-1, 1.08 to 6.46 µM; at AKT, above 12.1 µM; on EPHB4, 1.08 to 6.46 µM. For the same molecule, the IC50 on Hck-1 fell in the range of 6.46 to 9.42 µM.

With `Cc1cccc(Nc2ncnc(Nc3ccc4[nH]ccc4c3)n2)c1` [Compound 110], the IC50 is below 1.26 µM at Fyn; above 14.2 µM at Zap-70; below 1.26 µM on ErbB2; below 1.26 µM on Flt-1; above 14.2 µM at AKT; 11.1 to 14.2 µM at EPHB4. Further, on Hck-1, the IC50 fell in the range of 7.59 to 11.1 µM.

On to `COc1cc(Nc2ncnc(Nc3ccc4c(ccn4Cc4ccccc4)c3)n2)cc(OC)c1OC` [Compound 178], for which the IC50 on Fyn is 0.829 to 4.97 µM; on Zap-70 it was 0.829 to 4.97 µM; on ErbB2, below 0.829 µM; at Flt-1, 7.25 to 9.33 µM; on AKT it was 7.25 to 9.33 µM; on EPHB4, 4.97 to 7.25 µM. Moreover, the IC50 on Hck-1 was above 9.33 µM.

Regarding `COc1ccc(Nc2ncnc(Nc3cc(OC)c(OC)c(OC)c3)n2)cc1O` [Compound 931], the IC50 at Fyn is below 1 µM; at Zap-70, above 11.3 µM; at ErbB2, 1 to 6.01 µM; at Flt-1 it was below 1 µM; on AKT, above 11.3 µM; at EPHB4, 1 to 6.01 µM. This molecule also gave an IC50 at Hck-1 of 1 to 6.01 µM.

As to `Cc1cccc(Nc2ncnc(Nc3ccc4[nH]ncc4c3)n2)c1` [Compound 120], the IC50 on Fyn was 1.26 to 7.56 µM; at Zap-70, 11 to 14.2 µM; at ErbB2, 1.26 to 7.56 µM; on Flt-1 it was 1.26 to 7.56 µM; on AKT, 7.56 to 11 µM; on EPHB4, 1.26 to 7.56 µM. The molecule further gave an IC50 against Hck-1 of 1.26 to 7.56 µM.

Take `COc1cc(Nc2ncnc(-n3ccc4ccccc43)n2)cc(OC)c1OC` [Compound 185]: the IC50 at Fyn was above 11.9 µM; on Zap-70, above 11.9 µM; at ErbB2, above 11.9 µM; at Flt-1, 1.06 to 6.36 µM; on AKT it was above 11.9 µM; on EPHB4, above 11.9 µM. This molecule returned an IC50 on Hck-1 above 11.9 µM.

On to `COc1ccc(Nc2ncnc(-n3c(N)nc4ccccc43)n2)cc1OC` [Compound 285], for which the IC50 at Fyn, on Zap-70, on ErbB2, against Flt-1, on AKT and at EPHB4 was above 12.4 µM throughout. For the same molecule, at Hck-1, the IC50 was above 12.4 µM.

With `COc1cc(Nc2ncnc(Nc3ccc(C)cc3)n2)cc(OC)c1OC` [Compound 930], the IC50 at Fyn is below 1.09 µM; on Zap-70 it was above 12.2 µM; on ErbB2, 1.09 to 6.53 µM; against Flt-1 it was 6.53 to 9.53 µM; at AKT it was above 12.2 µM; at EPHB4, 6.53 to 9.53 µM. In addition, the IC50 at Hck-1 is 6.53 to 9.53 µM.

As for `COc1cc(Nc2ncnc(Nc3ccc(C(=O)O)cc3)n2)cc(OC)c1OC` [Compound 104], the IC50 at Fyn is 1.01 to 6.04 µM; at Zap-70 it was above 11.3 µM; at ErbB2, 1.01 to 6.04 µM; on Flt-1, 1.01 to 6.04 µM; on AKT it was above 11.3 µM; at EPHB4, below 1.01 µM. This molecule registered an IC50 at Hck-1 above 11.3 µM.

In the case of `COc1cc(Nc2ncnc(Nc3ccc(OCc4ccccc4)cc3)n2)cc(OC)c1` [Compound 156], the IC50 at Fyn is 5.59 to 8.15 µM; on Zap-70 it was above 10.5 µM; on ErbB2 it was 0.931 to 5.59 µM; at Flt-1 it was 5.59 to 8.15 µM; on AKT it was above 10.5 µM; on EPHB4 it was above 10.5 µM. The IC50 against Hck-1 is above 10.5 µM.

`COc1cc(Nc2ncnc(Nc3cccc(Cl)c3)n2)cc(OC)c1OC` [Compound 135]: the IC50 at Fyn was below 1.03 µM; at Zap-70, 9.02 to 11.6 µM; on ErbB2, below 1.03 µM; on Flt-1, above 11.6 µM; on AKT, above 11.6 µM; at EPHB4, below 1.03 µM. Moreover, the IC50 against Hck-1 is above 11.6 µM.

Turning to `COc1cc(Nc2ncnc(N3CCCc4ccccc43)n2)cc(OC)c1OC` [Compound 609], the IC50 is below 1.02 µM at Fyn; above 11.4 µM on Zap-70; below 1.02 µM at Flt-1; above 11.4 µM at AKT; above 11.4 µM on EPHB4; above 11.4 µM at Hck-1.

As to `COc1ccc(Nc2ccc(Nc3ncnc(Nc4cc(OC)c(OC)c(OC)c4)n3)cc2)cc1` [Compound 922], the IC50 on Fyn is 0.843 to 5.06 µM; at Zap-70, 5.06 to 7.38 µM; on Flt-1, 5.06 to 7.38 µM; on AKT it was 0.843 to 5.06 µM; on EPHB4, 5.06 to 7.38 µM; at Hck-1 it was above 9.48 µM.

Consider `COc1cc(Nc2ncnc(Nc3cc(-c4cccs4)n[nH]3)n2)cc(OC)c1OC` [Compound 318], for which the IC50 at Fyn was below 0.94 µM; on Zap-70 it was above 10.6 µM; against Flt-1 it was below 0.94 µM; on AKT, 8.23 to 10.6 µM; at EPHB4 it was below 0.94 µM; at Hck-1, 0.94 to 5.64 µM.

As for `COc1cc(Nc2ncnc(-n3ccc4cc(OCc5ccccc5)ccc43)n2)cc(OC)c1OC` [Compound 200], the IC50 on Fyn, on Zap-70, at Flt-1, on AKT, on EPHB4 and against Hck-1 was above 9.31 µM each time.
